Patent publication US12723063B2, “GIPR-agonist compounds” (Eli Lilly and Company, priority 2019, dated 2026)
pKi: −log10 of the molar value. *1 amine or outer side, *2 acyl side, *3 side chain or, on linkers, in order; H or OH if unused. Where a SMILES comes first, the peptide text is derived from it. Side-chain parts run from the residue outwards. [ ]: non-standard residue; d: D form. The star is where a group is joined. C20 diacid = O=C(O)CCCCCCCCCCCCCCCCCCC(=O)*; C18 diacid = O=C(O)CCCCCCCCCCCCCCCCC(=O)*; γGlu = O=C(O)[C@H](CCC(=O)[*:2])N[*:1]; 4Pal = N[C@@H](Cc1ccncc1)C(=O)O; αMeL = CC(C)C[C@](C)(N)C(=O)O; Orn = NCCC[C@H](N)C(=O)O; AEEA = NCCOCCOCC(=O)O; Aib = CC(C)(N)C(=O)O

Legend:
human GIPR = biological target: T1, human GIPR (Homo sapiens, UniProt P48546); assay: [125I]-GIP binding, SPA with WGA beads, 0.1% bacitracin; conditions: geometric mean, read-out: hGIPR Ki
T1 construct: expressed in transfected cells; crude membranes
T1 sequence (P48546 22-466): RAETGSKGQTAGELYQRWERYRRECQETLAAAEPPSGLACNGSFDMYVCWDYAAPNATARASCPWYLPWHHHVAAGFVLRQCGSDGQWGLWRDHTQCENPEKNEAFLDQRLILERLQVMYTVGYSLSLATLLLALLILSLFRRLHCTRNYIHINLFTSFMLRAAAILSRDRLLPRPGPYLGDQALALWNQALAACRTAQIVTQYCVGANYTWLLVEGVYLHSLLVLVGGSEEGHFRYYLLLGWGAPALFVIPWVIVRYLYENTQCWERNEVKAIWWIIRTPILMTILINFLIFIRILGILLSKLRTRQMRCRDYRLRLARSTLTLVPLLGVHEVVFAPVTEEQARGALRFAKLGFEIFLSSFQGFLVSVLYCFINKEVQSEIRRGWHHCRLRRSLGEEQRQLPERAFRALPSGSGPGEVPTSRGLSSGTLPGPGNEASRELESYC
Summary of the method: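 Ki values are geometric means (SEM, n independent days), derived from four-parameter nonlinear regression of IC50. Membranes came from hGIPR-expressing CHO cells.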

[1] = biological target: T2, human glucose-dependent insulinotropic peptide receptor (GIPR) (Homo sapiens, UniProt P48546); assay: cAMP functional assay (HTRF) in HEK293 cells in presence of 0.1% casein; assay type: cell-based; conditions: HEK293 cells expressing human GIPR, geometric mean, read-out: hGIPR cAMP Rel EC50 nM (SEM, n)
T2 construct: expressed in transfected cells; host or cells: HEK293
T2 sequence (P48546 22-466): T1 sequence (P48546 22-466)

Row | SMILES | pKi (human GIPR) | EC50 [1] [nM]
1 | CC[C@H](C)[C@H](NC(=O)[C@H](Cc1ccccc1)NC(=O)[C@@H](NC(=O)CNC(=O)[C@H](CCC(=O)O)NC(=O)C(C)(C)NC(=O)[C@@H](N)Cc1ccc(O)cc1)[C@@H](C)O)C(=O)N[C@@H](CO)C(=O)N[C@@H](CC(=O)O)C(=O)N[C@@H](Cc1ccc(O)cc1)C(=O)N[C@@H](CO)C(=O)N[C@H](C(=O)N[C@@](C)(CC(C)C)C(=O)N[C@@H](CC(C)C)C(=O)N[C@@H](CC(=O)O)C(=O)N[C@@H](CCC(=O)O)C(=O)N[C@@H](CCCCNC(=O)COCCOCCNC(=O)COCCOCCNC(=O)CC[C@H](NC(=O)CCCCCCCCCCCCCCCCCCC(=O)O)C(=O)O)C(=O)N[C@@H](Cc1c[nH]cn1)C(=O)N[C@@H](CCC(N)=O)C(=O)NC(C)(C)C(=O)N[C@@H](CC(=O)O)C(=O)N[C@@H](Cc1ccccc1)C(=O)N[C@H](C(=O)N[C@@H](CCC(=O)O)C(=O)N[C@@H](Cc1ccncc1)C(=O)N[C@@H](CC(C)C)C(=O)N[C@@H](CC(C)C)C(=O)N[C@@H](C)C(=O)N[C@@H](C)C(=O)NCC(=O)N1CCC[C@H]1C(=O)N[C@@H](CO)C(=O)N[C@@H](CO)C(=O)NCC(=O)N[C@@H](C)C(=O)N1CCC[C@H]1C(=O)N1CCC[C@H]1C(=O)N1CCC[C@H]1C(=O)N[C@@H](CO)C(N)=O)C(C)C)[C@@H](C)CC [Example 85] | 10.28 | 0.0359
2 | CC[C@H](C)[C@H](NC(=O)[C@H](CO)NC(=O)[C@H](Cc1ccc(O)cc1)NC(=O)[C@H](CC(=O)O)NC(=O)[C@H](CO)NC(=O)[C@@H](NC(=O)[C@H](Cc1ccccc1)NC(=O)[C@@H](NC(=O)CNC(=O)[C@H](CCC(=O)O)NC(=O)[C@@H](C)NC(=O)[C@@H](N)Cc1ccc(O)cc1)[C@@H](C)O)[C@@H](C)CC)C(=O)N[C@@H](CC(C)C)C(=O)N[C@@H](CC(C)C)C(=O)N[C@@H](CC(=O)O)C(=O)N[C@@H](CCCCN)C(=O)N[C@@H](CCCCNC(=O)COCCOCCNC(=O)COCCOCCNC(=O)CC[C@H](NC(=O)CCCCCCCCCCCCCCCCCCC(=O)O)C(=O)O)C(=O)N[C@@H](Cc1c[nH]cn1)C(=O)N[C@@H](CCC(N)=O)C(=O)N[C@@H](CCC(N)=O)C(=O)N[C@@H](CCC(=O)O)C(=O)N[C@@H](Cc1ccccc1)C(=O)N[C@H](C(=O)N[C@@H](CC(N)=O)C(=O)N[C@@H](Cc1c[nH]c2ccccc12)C(=O)N[C@@H](CC(C)C)C(=O)N[C@@H](CC(C)C)C(=O)N[C@@H](C)C(=O)N[C@@H](CCC(N)=O)C(=O)NCC(=O)N1CCC[C@H]1C(=O)N[C@@H](CO)C(=O)N[C@@H](CO)C(=O)NCC(=O)N[C@@H](C)C(=O)N1CCC[C@H]1C(=O)N1CCC[C@H]1C(=O)N1CCC[C@H]1C(=O)N[C@@H](CO)C(N)=O)C(C)C [Example 13] (H-Y[dA]EGTFISDYSILLDKK([AEEA-AEEA-γGlu-C20 diacid])HQQEFVNWLLAQGPSSGAPPPS-NH2) | 9.63 | 0.129
3 | CC[C@H](C)[C@H](NC(=O)[C@H](CCCN)NC(=O)[C@H](CC(=O)O)NC(=O)[C@H](CC(C)C)NC(=O)[C@](C)(CC(C)C)NC(=O)[C@@H](NC(=O)[C@H](CO)NC(=O)[C@H](Cc1ccc(O)cc1)NC(=O)[C@H](CC(=O)O)NC(=O)[C@H](CO)NC(=O)[C@@H](NC(=O)[C@H](Cc1ccccc1)NC(=O)[C@@H](NC(=O)CNC(=O)[C@H](CCC(=O)O)NC(=O)C(C)(C)NC(=O)[C@@H](N)Cc1ccc(O)cc1)[C@@H](C)O)[C@@H](C)CC)[C@@H](C)CC)C(=O)N[C@@H](Cc1c[nH]cn1)C(=O)N[C@@H](CCC(N)=O)C(=O)NC(C)(C)C(=O)N[C@@H](CCC(=O)O)C(=O)N[C@@H](Cc1ccccc1)C(=O)N[C@H](C(=O)N[C@@H](CCC(=O)O)C(=O)N[C@@H](Cc1ccc(O)cc1)C(=O)N[C@@H](CCCCNC(=O)COCCOCCNC(=O)COCCOCCNC(=O)CC[C@H](NC(=O)CCCCCCCCCCCCCCCCCCC(=O)O)C(=O)O)C(=O)N[C@@H](CC(C)C)C(=O)N[C@@H](CCC(=O)O)C(=O)N[C@H](C(=O)NCC(=O)N1CCC[C@H]1C(=O)N[C@@H](CO)C(=O)N[C@@H](CO)C(=O)NCC(=O)N[C@@H](C)C(=O)N1CCC[C@H]1C(=O)N1CCC[C@H]1C(=O)N1CCC[C@H]1C(=O)N[C@@H](CO)C(N)=O)[C@@H](C)O)C(C)C [Example 105] (H-Y[Aib]EGTFISDYSI[αMeL]LD[Orn]IHQ[Aib]EFVEYK([AEEA-AEEA-γGlu-C20 diacid])LETGPSSGAPPPS-NH2) | 9.76 | 0.0179
4 | CC[C@H](C)[C@H](NC(=O)[C@H](CCCN)NC(=O)[C@H](CC(=O)O)NC(=O)[C@H](CC(C)C)NC(=O)[C@](C)(CC(C)C)NC(=O)[C@@H](NC(=O)[C@H](CO)NC(=O)[C@H](Cc1ccc(O)cc1)NC(=O)[C@H](CC(=O)O)NC(=O)[C@H](CO)NC(=O)[C@@H](NC(=O)[C@H](Cc1ccccc1)NC(=O)[C@@H](NC(=O)CNC(=O)[C@H](CCC(=O)O)NC(=O)C(C)(C)NC(=O)[C@@H](N)Cc1ccc(O)cc1)[C@@H](C)O)[C@@H](C)CC)[C@@H](C)CC)C(=O)N[C@@H](Cc1c[nH]cn1)C(=O)N[C@@H](CCC(N)=O)C(=O)NC(C)(C)C(=O)N[C@@H](CC(=O)O)C(=O)N[C@@H](Cc1ccccc1)C(=O)N[C@H](C(=O)N[C@@H](CCC(=O)O)C(=O)N[C@@H](Cc1ccc(O)cc1)C(=O)N[C@@H](CCCCNC(=O)COCCOCCNC(=O)COCCOCCNC(=O)CC[C@H](NC(=O)CCCCCCCCCCCCCCCCC(=O)O)C(=O)O)C(=O)N[C@@H](CC(C)C)C(=O)N[C@@H](CCC(=O)O)C(=O)NCC(=O)NCC(=O)N1CCC[C@H]1C(=O)N[C@@H](CO)C(=O)N[C@@H](CO)C(=O)NCC(=O)N[C@@H](C)C(=O)N1CCC[C@H]1C(=O)N1CCC[C@H]1C(=O)N1CCC[C@H]1C(=O)N[C@@H](CO)C(N)=O)C(C)C [Example 103] (H-Y[Aib]EGTFISDYSI[αMeL]LD[Orn]IHQ[Aib]DFVEYK([AEEA-AEEA-γGlu-C18 diacid])LEGGPSSGAPPPS-NH2) | 10.39 | 0.0129
5 | CC[C@H](C)[C@H](NC(=O)[C@H](CCCCN)NC(=O)[C@H](CC(=O)O)NC(=O)[C@H](CC(C)C)NC(=O)[C@](C)(CC(C)C)NC(=O)[C@@H](NC(=O)[C@H](CO)NC(=O)[C@H](Cc1ccc(O)cc1)NC(=O)[C@H](CC(=O)O)NC(=O)[C@H](CO)NC(=O)[C@@H](NC(=O)[C@H](Cc1ccccc1)NC(=O)[C@@H](NC(=O)CNC(=O)[C@H](CCC(=O)O)NC(=O)C(C)(C)NC(=O)[C@@H](N)Cc1ccc(O)cc1)[C@@H](C)O)[C@@H](C)CC)[C@@H](C)CC)C(=O)N[C@@H](Cc1c[nH]cn1)C(=O)N[C@@H](CCC(N)=O)C(=O)NC(C)(C)C(=O)N[C@@H](CC(=O)O)C(=O)N[C@@H](Cc1ccccc1)C(=O)N[C@H](C(=O)N[C@@H](CCC(=O)O)C(=O)N[C@@H](Cc1ccc(O)cc1)C(=O)N[C@@H](CCCCNC(=O)COCCOCCNC(=O)COCCOCCNC(=O)CC[C@H](NC(=O)CCCCCCCCCCCCCCCCCCC(=O)O)C(=O)O)C(=O)N[C@@H](CC(C)C)C(=O)N[C@@H](CCC(=O)O)C(=O)N[C@@H](C)C(=O)NCC(=O)N1CCC[C@H]1C(=O)N[C@@H](CO)C(=O)N[C@@H](CO)C(=O)NCC(=O)N[C@@H](C)C(=O)N1CCC[C@H]1C(=O)N1CCC[C@H]1C(=O)N1CCC[C@H]1C(=O)N[C@@H](CO)C(N)=O)C(C)C [Example 117] (H-Y[Aib]EGTFISDYSI[αMeL]LDKIHQ[Aib]DFVEYK([AEEA-AEEA-γGlu-C20 diacid])LEAGPSSGAPPPS-NH2) | 10.14 | 0.0617
6 | CC[C@H](C)[C@H](NC(=O)[C@H](Cc1ccccc1)NC(=O)[C@@H](NC(=O)CNC(=O)[C@H](CCC(=O)O)NC(=O)C(C)(C)NC(=O)[C@@H](N)Cc1ccc(O)cc1)[C@@H](C)O)C(=O)N[C@@H](CO)C(=O)N[C@@H](CC(=O)O)C(=O)N[C@@H](Cc1ccc(O)cc1)C(=O)N[C@@H](CO)C(=O)N[C@H](C(=O)N[C@@](C)(CC(C)C)C(=O)N[C@@H](CC(C)C)C(=O)N[C@@H](CC(=O)O)C(=O)N[C@@H](CCCN)C(=O)N[C@@H](CCCCNC(=O)COCCOCCNC(=O)COCCOCCNC(=O)CC[C@H](NC(=O)CCCCCCCCCCCCCCCCCCC(=O)O)C(=O)O)C(=O)N[C@@H](Cc1c[nH]cn1)C(=O)N[C@@H](CCC(N)=O)C(=O)NC(C)(C)C(=O)N[C@@H](CC(=O)O)C(=O)N[C@@H](Cc1ccccc1)C(=O)N[C@H](C(=O)N[C@@H](CCC(=O)O)C(=O)N[C@@H](Cc1ccncc1)C(=O)N[C@@H](CC(C)C)C(=O)N[C@@H](CC(C)C)C(=O)N[C@@H](CCC(=O)O)C(=O)NCC(=O)NCC(=O)N1CCC[C@H]1C(=O)N[C@@H](CO)C(=O)N[C@@H](CO)C(=O)NCC(=O)N[C@@H](C)C(=O)N1CCC[C@H]1C(=O)N1CCC[C@H]1C(=O)N1CCC[C@H]1C(=O)N[C@@H](CO)C(N)=O)C(C)C)[C@@H](C)CC [Example 82] (H-Y[Aib]EGTFISDYSI[αMeL]LD[Orn]K([AEEA-AEEA-γGlu-C20 diacid])HQ[Aib]DFVE[4Pal]LLEGGPSSGAPPPS-NH2) | 10.21 | 0.0391
